# From PMC7696940, “Effects of Rationally Designed Physico-Chemical Variants of the Peptide PuroA on Biocidal Activity towards Bacterial and Mammalian Cells” (International Journal of Molecular Sciences, 2020)
# Where no end group is shown, it is not given here.
# What was measured:
# [1] = system: E. coli ATCC25922; assay type: cell-based, Escherichia coli; conditions: MHB; for MIC E. coli, No NaCl: 0 mM NaCl; for MIC E. coli, No NaCl / MIC E. coli, With 50mM NaCl / MIC E. coli, With 100mM NaCl / MIC E. coli, With 150mM NaCl: triplicate, mode; for MIC E. coli ATCC25922: 37 °C overnight, A595, mode of three independent experiments
# Procedure: (§1) The activity of peptides was determined against the Gram-positive Staphylococcus aureus (ATCC 25923), and the Gram-negative Escherichia coli (ATCC 25922) and Pseudomonas aeruginosa (ATCC 9027) bacteria. Selected peptides were also tested against two clinical isolates of methicillin-resistant Staphylococcus aureus (MRSA), M173525 and M180920, kindly provided by Dr P. B. Ward (Microbiology Department, Austin and Repatriation Medical Centre, Heidelberg West, Victoria, Australia). The Minimum inhibitory concentration (MIC) of peptides was determined by the microtitre broth dilution method, as described in Phillips et al.. Briefly, bacteria were grown in Mueller-Hinton Broth (MHB) at 37 °C overnight with shaking (200 rpm). The cultures were adjusted to 0.5 McFarland turbidity standard (approximately 1 × 10^8 colony forming units (CFU)/mL), then diluted 1:100 in MHB (1 × 10^6 CFU/mL). A total of 75 μL of these suspensions were mixed with 25 μL of peptide solutions (final concentrations 250 to 0.5 μg/mL) and the microtitre plates incubated overnight at 37 °C. Positive growth controls (inoculum and MHB, with no peptide) and sterility controls (0.01% glacial acetic) were also included. Post-incubations, the absorbance of cultures at 595 nm was measured using a microplate reader (POLARstar Omega, Germany). […] To evaluate salt sensitivity of peptides up to physiological levels (150 mM NaCl), overnight cultures of S. aureus and E. coli adjusted to 0.5 McFarland turbidity standard were diluted 1:100 in MHB containing 0, 50, 100 or 150 mM NaCl, and the MICs of peptides determined as above. All tests were conducted in triplicate. The results are shown as the mode of values obtained.
# [2] = system: S. aureus ATCC25923; assay type: cell-based, Staphylococcus aureus; conditions: MHB; for MIC S. aureus, No NaCl: 0 mM NaCl; for MIC S. aureus, No NaCl / MIC S. aureus, With 50mM NaCl / MIC S. aureus, With 100mM NaCl / MIC S. aureus, With 150mM NaCl: triplicate, mode; for MIC S. aureus ATCC25923: 37 °C overnight, A595, mode of three independent experiments
# Procedure: as §1
# [3] = system: P. aeruginosa ATCC9027; assay type: cell-based, Pseudomonas aeruginosa; conditions: MHB, 37 °C overnight, A595; mode of three independent experiments
# Procedure: as §1
# [4] = system: C. albicans FRR 5580; assay type: cell-based, Candida albicans; conditions: PDB, overnight; mode of three independent experiments
# Procedure: The assay was carried out as per Alfred et al.. Candida albicans (FRR 5580) was grown in potato dextrose broth (PDB; Difco-BD, Bergen County, NJ, USA) overnight at 30 °C with shaking (200 rpm) until exponential phase, then adjusted to 0.5 McFarland turbidity standard (approximately 1 × 10^6 cells/mL) and diluted 1:200 with PDB to 0.5 − 2 × 10^3 cells/mL. Peptides in 25 μL volumes were mixed with 75 μL of the yeast suspensions. The controls were included as above. The plates were incubated overnight and absorbance was recorded. All the tests were conducted in triplicate.
# [5] = system: E. coli and S. aureus; test: Salt tolerance (MICs under 0-150 mM NaCl, summary); assay type: cell-based, Escherichia coli; Staphylococcus aureus; parameters: key: Up to 50 mM: no effects on antibacterial activity up to 50 mM NaCl but increase in the MICs for E. coli and S. aureus at 100 mM NaCl; Intolerant: not resistant to salt effects even at 50 mM NaCl; Up to 150 mM: no effects on antibacterial activity up to 150 mM NaCl; conditions: MICs for E. coli and S. aureus in MHB with 0, 50, 100 or 150 mM NaCl
# Procedure: as §1
# [6] = system: porcine trypsin and proteinase K; test: Proteases stability assay; assay type: in vitro ADME, porcine; Tritirachium album; conditions: 1000 µg peptide with 50 µg protease (20:1 w/w), porcine trypsin or proteinase K, PBS pH 7.4, 37 °C, 3 h; read-out activity of supernatant on E. coli and S. aureus; triplicate
# Procedure: The effect of two well-studied proteases, porcine trypsin and proteinase K from Tritirachium album, on the activity of peptides was investigated as per Carmona et al.. Briefly, 1000 µg of a peptide was incubated with 50 µg of a protease (20:1 w/w) at 37 °C for 3 h in phosphate buffered saline PBS (pH 7.4). The enzyme activity was then terminated by heating (70 °C, 5 min) and the samples centrifuged at 12,000× g. The activity of the supernatant on E. coli and S. aureus was tested as above, in triplicate.
# [7] = system: pBlueScript SK+ plasmid DNA; test: In vitro DNA-binding assay (gel retardation); conditions: 100 ng pBlueScript SK+, peptide 8-500 µg/mL, 1 h room temperature, 1% agarose
# Procedure: The ability of peptides to bind to purified DNA (indicative of in vivo DNA binding potential) was tested by the modified gel retardation assay developed by Alfred et al.. The DNA of pBlueScript SK+ (100 ng) was incubated with peptides (to final concentrations of 8, 16, 32, 64, 125, 250 or 500 µg/mL) in 15 µL volumes made with sterile MilliQ water, the held at room temperature for 1h. Loading dye was added to each sample and the samples electrophoresed on 1% agarose gels. The gels were then immersed in ethidium bromide ([…]) then visualized and imaged
# [8] = system: NIH-3T3 cells; test: Cytotoxicity, MTT assay; assay type: cell-based, mouse; conditions: 24 h; for IC50 NIH-3T3: peptide up to 250 µg/mL, concentration causing 50% cell growth inhibition, mean of triplicate assays; for Cytotoxicity to NIH-3T3 mouse fibroblasts (in words): up to 250 µg/mL
# Procedure: (§2) Cytotoxicity to human cervical carcinoma HeLa cells and mouse fibroblastic NIH-3T3 cells was determined using the MTT assay as per Scudiero et al. with minor modifications. The cells were maintained in Dulbecco’s Modified Eagle Medium (DMEM) with 10% foetal bovine serum (FBS) and 1% penicillin G in a humidified incubator (Heraeus Hera Cell incubator) at 37 °C with 5% CO2. They were seeded in 96-well microtiter plates at 1 × 10^4 cells/well and allowed to adhere for 24 h in the incubator. The medium was removed, and adherent cells were washed with PBS. Fresh media containing serially diluted peptides in PBS (final concentrations 4 to 250 µg/mL) were added and the cells incubated for 24 h. Cells without peptides were used as negative controls. Following incubations, the medium was removed, and adherent cells were washed with PBS. 150 µL of MTT (diluted to 0.33 mg/mL in DMEM) and the plates incubated for 3 h. The precipitated formazan was dissolved in 100 µL of DMSO and its absorbance measured at 570 nm. Cell viability was determined as: (OD570 nm peptide treated cells/(OD570 nm untreated cells) × 100. Positive cytotoxicity was defined as peptide concentration that causes 50% growth inhibition in a cell line (IC50). All tests were carried out in triplicate.
# [9] = system: HeLa cells; assay type: cell-based, human; conditions: MTT, 24 h, peptide up to 250 µg/mL; concentration causing 50% cell growth inhibition; mean of triplicate assays
# Procedure: as §2
Molecule,"MIC E. coli, No NaCl [1] [µg/mL]","MIC E. coli, With 50mM NaCl [1] [µg/mL]","MIC E. coli, With 100mM NaCl [1] [µg/mL]","MIC E. coli, With 150mM NaCl [1] [µg/mL]",MIC E. coli ATCC25922 [1] [µg/mL],"MIC S. aureus, No NaCl [2] [µg/mL]","MIC S. aureus, With 50mM NaCl [2] [µg/mL]","MIC S. aureus, With 100mM NaCl [2] [µg/mL]","MIC S. aureus, With 150mM NaCl [2] [µg/mL]",MIC S. aureus ATCC25923 [2] [µg/mL],MIC P. aeruginosa ATCC9027 [3] [µg/mL],MIC C. albicans FRR 5580 [4] [µg/mL],Salt Tolerance [5],Protease Stability [6],Binding to DNA in vitro (concentration inhibiting plasmid migration) [7] [µg/mL],Binding to DNA in vitro (concentration inhibiting plasmid migration) ([7]; listed as cyclized PuroA) [µg/mL],IC50 NIH-3T3 [8] [µg/mL],Cytotoxicity to NIH-3T3 mouse fibroblasts (in words) [8],IC50 HeLa [9] [µg/mL]
CC(C)[C@@H]1NC(=O)[C@@H]2CCCN2C(=O)[C@H](Cc2ccccc2)NC(=O)CNC(=O)[C@H](CCCCN)NC(=O)[C@H](Cc2c[nH]c3ccccc23)NC(=O)[C@H](Cc2c[nH]c3ccccc23)NC(=O)[C@H](CCCCN)NC(=O)[C@H](Cc2c[nH]c3ccccc23)NC(=O)[C@H](Cc2c[nH]c3ccccc23)NC(=O)[C@H](CCCNC(=N)N)NC(=O)[C@H](Cc2c[nH]c3ccccc23)NC(=O)[C@H]([C@@H](C)O)NC1=O [Cyclic PuroA],250,> 250,> 250,> 250,250,125,250,250,> 250,125,>250,>250,Intolerant,Unstable,≥ 64,64,>250,no cytotoxicity,>250
RRRRWRWWRWWRR-NH2 [Peptide R8],64,64,64,64,–,64,64,64,64,–,64,250,Up to 150 mM,Unstable,≥ 64,–,>250,no cytotoxicity,250
WRWWKWWK-NH2 [Peptide W8],4,4,4,4,4,8,8,8,8,8,32,64,Up to 150 mM,Unstable,≥ 16,–,>250,no cytotoxicity,250
